{"source": "patent US20250144127A1", "about": "“LONG-CHAIN COMPOUND AND USE THEREOF” (Burgeon Therapeutics Co., Ltd., priority 2021, published 2025)", "key": {"[1]": {"system": "ACLY knockdown primary hepatocytes", "test": "De novo lipid synthesis in ACLY knockdown primary hepatocytes, [14C]-citric acid tracer", "assay_type": "cell-based, mouse", "details": "[14C]-citric acid substrate", "from_the_text": "Test protocol: In order to further investigate the dependence of the inhibitory effect of the series of compounds on de novo lipid synthesis on ACLY, the inventors chose ACLY knockdown primary hepatocytes for further evaluation of de novo lipid synthesis, while compound ETC-1002 was used as a positive control. Specifically, the experimental protocol was as above, and 0.1 μCi/well [^14C]-citric acid was used for tracing."}, "ob/ob mice": {"system": "ob/ob mice", "test": "NASH induced by high-fat, high-sugar, high-cholesterol diet in ob/ob mice", "assay_type": "in vivo, mouse", "details": "30 mg/kg, 1 time/day, 10 weeks", "procedure": "Dosing regimen: 16 ob/ob mice, males, 7-8 weeks, were equally divided into 2 groups (n=8) and fed with high-fat, high-sugar, high-cholesterol diet (Research diet, item number D09100310) for 8 weeks for modeling, and a group of wild-type mice from the same litter was set up as a blank control group. Long-term drug administration was started after 8 weeks of modeling and the groups were model control group, compound A3 30 mg/kg group, and blank control group. The compounds in each group were prepared in saline (0.9% NaCl) and administered at a frequency of 1 time/day for 10 weeks.\nIndicator test: The body weight and feeding changes of ob/ob mice and blank control mice were closely monitored during the administration period. After 10 weeks of administration, the livers of each group were taken and tested for NASH indicators (HE staining, Sirius red staining, immunohistochemistry for inflammatory signals, etc.)."}, "golden hamster": {"system": "golden hamster", "test": "High-fat and high-cholesterol diet-induced hyperlipidemia model of golden hamster", "assay_type": "in vivo", "details": "1 time/day, 7 days, vs control group", "from_the_text": "Dosing regimen: The hyperlipidemia model of golden hamster is recognized as one of the ideal animal models for studying hyperlipidemia drug therapy (pharmacodynamic evaluation). In order to preliminarily investigate the existence of potential regulatory effects of the candidate compounds on hepatic lipid metabolism homeostasis, the high-fat and high-cholesterol diet-induced hyperlipidemia model of golden hamster was utilized for preliminary pharmacodynamic evaluation. The specific protocol was as follows. 56 golden hamsters, males, were modeled on high-fat and high-cholesterol diet (Research diet, item number C11953) for two weeks, and 8 golden hamsters were reserved as blank control group. Subsequently, group administration (7 groups, n=8) was performed, i.e., model control group, positive control ETC-1002 30 mg/kg group, compound A3 10 mg/kg and 30 mg/kg group, compound A4 10 mg/kg and 30 mg/kg group, and blank control group. The compounds in each group were configured with saline (0.9% NaCl) and administered at a frequency of 1 time/day for a 7-day dosing cycle.\nIndicator test: The body weight and food intake of golden hamsters were closely monitored during the administration period. After 7 days of administration, blood was collected from the orbital region of each group (starved overnight for about 16 hours), centrifuged to obtain serum, and stored in cryopreservation, and then total cholesterol and LDL cholesterol were detected in the serum. The relative amount of the relevant indexes was calculated as follows: Relative amount (100%)=the amount in the administered group/the amount in the model control group*100%."}, "crab-eating monkeys": {"system": "crab-eating monkeys", "test": "High-fat, high-sugar, high-cholesterol diet-induced NASH in crab-eating monkeys", "assay_type": "in vivo, crab-eating monkey", "details": "20 mg/kg, 1 time/day, 14 weeks, liver puncture", "procedure": "Dosing regimen: 18 non-alcoholic steatohepatitis-eating crab monkeys, males, were divided into 2 groups (n=8-10), one group was set up as a model control group, and one group was set up as a drug administration group. The drug (20 mg/kg) was administered at a frequency of 1 time/day for 14 weeks while feeding a high-fat, high-sugar, high-cholesterol diet for 14 weeks.\nIndicator tests: The body weights and food intake of the crab-eating monkeys were closely monitored during the administration period. After 14 weeks of compound administration, liver puncture was performed for pathologic analysis of NASH indicators."}, "[2]": {"system": "primary hepatocytes from WT mice", "test": "De novo lipid synthesis in WT primary hepatocytes, [14C]-citric acid tracer", "assay_type": "cell-based", "details": "WT mouse hepatocytes, [14C]-citric acid substrate"}, "ApoE−/− mice": {"system": "ApoE−/− mice", "test": "Atherosclerosis in ApoE-/- mice on high cholesterol chow, aortic plaque Sudan IV staining", "assay_type": "in vivo, mouse", "procedure": "Dosing regimen: Hypercholesterolemia is an important trigger for the development of atherosclerosis. […] The specific scheme is as follows. 60 ApoE^−/− mice, males, were equally divided into 6 groups (n=10), of which 5 groups were fed with high cholesterol chow (Research diet, item no. D12079B) for modeling, and 1 group was set aside as a blank control group, while long-term administration of the drug was carried out, i.e., the model control group, the positive control ETC-1002 30 mg/kg group, and the compounds A3 15 mg/kg and 30 mg/kg and 60 mg/kg groups, and blank control group. The compounds in each group were configured with saline (0.9% NaCl) and administered at a frequency of 1 time/day for a 24-week dosing cycle.\nIndicator test: The body weight and food intake of ApoE^−/− mice were closely monitored during the administration period. After 24 weeks of compound administration in each group, the aortic vessels of mice were stripped and Sudan IV staining of aortic plaques was performed, and the plaque area was counted with Image-Pro Plus software."}}}
{"smiles": "CC(C)(CCCC/C=C/CCCCCC(C)(C)C(=O)O)C(=O)O", "note": "[Compound A3]", "values": [{"measurement": "inhibitory effect on de novo synthesis of cholesterol", "setting": "[1]", "result": "significantly attenuated or even the inhibitory effect was not manifested"}, {"measurement": "inhibitory effect on de novo synthesis of triglycerides", "setting": "[1]", "result": "significantly attenuated or even the inhibitory effect was not manifested"}, {"measurement": "liver whitening and granulomatous sensation due to excessive lipid accumulation", "setting": "ob/ob mice", "result": "significantly reversed"}, {"measurement": "degree of hepatic collagen deposition (Sirius red staining)", "setting": "ob/ob mice; vs model control", "result": "significantly reduced"}, {"measurement": "hepatic inflammatory cell infiltration (macrophage CD68 staining)", "setting": "ob/ob mice; vs model control", "result": "significantly reduced"}, {"measurement": "liver steatosis and ballooning (H & E staining)", "setting": "ob/ob mice; vs model control", "result": "significantly reduced"}, {"measurement": "serum LDL cholesterol", "setting": "golden hamster; 10 mg/kg", "result": "significantly reduce"}, {"measurement": "serum total cholesterol", "setting": "golden hamster; 10 mg/kg", "result": "significantly reduce"}, {"measurement": "serum LDL cholesterol", "setting": "golden hamster; 30 mg/kg", "result": "significantly reduce"}, {"measurement": "serum total cholesterol", "setting": "golden hamster; 30 mg/kg", "result": "significantly reduce"}, {"measurement": "accumulation of hepatic lipids", "setting": "crab-eating monkeys", "result": "significantly reduce"}, {"measurement": "activity score of non-alcoholic steatohepatopathy (NAS)", "setting": "crab-eating monkeys", "result": "significantly reduced"}, {"measurement": "occurrence of fibrosis", "setting": "crab-eating monkeys", "result": "significantly reduce"}, {"measurement": "occurrence of inflammation", "setting": "crab-eating monkeys", "result": "significantly reduce"}, {"measurement": "de novo synthesis of triglycerides", "setting": "[2]; FIG. 1 A", "result": "significantly inhibited"}, {"measurement": "de novo synthesis of cholesterol", "setting": "[2]; FIG. 1 B", "result": "significantly inhibited"}, {"measurement": "area of aortic plaque", "setting": "ApoE−/− mice; 15, 30 and 60 mg/kg groups, 1 time/day, 24 weeks, vs control group", "result": "significantly reduced"}, {"measurement": "improving atherosclerosis compared with ETC-1002", "setting": "ApoE−/− mice; statement on previous studies", "result": "significantly better than ETC-1002"}]}
